Our source for the pest or weed control and inhibition of growth values is patent publication US20200281202A1 (priority 2017, published 2020).

Assay [1] deals with Phytophthora infestans. Nature of the assay: whole plant or invertebrate. In kind it is in vivo. The conditions noted are these: Phytophthora infestans, in Solanum lycopersicum, read-out: control (disease severity) compared to the untreated check.
Assay [2] relates to Phytophthora infestans. Kind of assay: microbe, parasite or virus in culture. In kind it is cell-based. The conditions noted are these: Phytophthora infestans, 168 h, read-out: control (radial growth) compared to the untreated check.
A further assay deals with Plasmopara viticola. Nature of the assay: Plasmopara viticola test in grape, preventive. The conditions noted are these: Plasmopara viticola, 50 ppm spray, grape seedlings inoculated one day after treatment, read-out: control (disease severity) compared to the untreated check. In kind it is in vivo. How it is done: Example B: Plasmopara viticola Test in Grape
Compounds were dissolved in 2% DMSO/Acetone & then mixed with water to calibrated spray volume of 50 ml. This 50 ml spray solution was poured into the spray bottles for further applications.
To test the preventive activity of compounds, five week old healthy grape seedlings raised in the greenhouse were sprayed with active compound preparation at the stated application rates inside the spray cabinets using hallow-cone nozzles. One day after treatment, the plants were inoculated with inoculum suspension (Cold sterile water) containing 6×10^6 Plasmopara viticola inoculum. The inoculated plants were then kept in greenhouse chamber at 18-21° C. temperature and 95-100% relative humidity for disease expression. Compounds
A visual assessment of compound's performance was carried by rating the disease severity (0-100% scale) on treated plants on 3, 7, 10 and 15 days after application. Efficacy (% control) of the compounds was calculated by comparing the disease rating in the treatment with untreated control. The sprayed plants were also assessed for compound's phytotoxic effects by recording symptoms like necrosis, chlorosis and stunting.

With `Cc1cccnc1OCC(=O)N1CCC(c2nc(C3=NOC(c4c(Cl)cc(Cl)cc4Cl)C3)cs2)CC1` (stereo not drawn) [Compound 79], the pest or weed control at 50 ppm with Phytophthora infestans [1] and in the assay on Plasmopara viticola was 90% in each case. In the assay on Phytophthora infestans [2], the inhibition of growth at 30 ppm was 70%.

In the case of `O=C(COc1ncccc1C(F)F)N1CCC(c2nc(C3=NOC(c4c(F)cccc4F)C3)cs2)CC1` (stereo not drawn) [Compound 86, 2-((3-(difluoromethyl)pyridin-2-yl)oxy)-1-(4-(4-(5-(2,6-difluorophenyl)-4,5-dihydroisoxazol-3-yl)thiazol-2-yl)piperidin-1-yl)ethan-1-one], the pest or weed control at 50 ppm in the assay with Phytophthora infestans [1] and with Plasmopara viticola was 90% each time. Further, in the assay with Phytophthora infestans [2], the inhibition of growth at 30 ppm is 70%.

As for `O=C(COc1ncc(Cl)cc1C(F)(F)F)N1CCC(c2nc(C3=NOC(c4c(F)cccc4F)C3)cs2)CC1` (stereo not drawn) [Compound 33], the pest or weed control at 50 ppm with Phytophthora infestans [1] and in the assay on Plasmopara viticola was 90% in each case. Besides, the inhibition of growth at 30 ppm with Phytophthora infestans [2] amounted to 70%.

As to `O=C(COc1ncccc1C(F)(F)F)N1CCC(c2nc(C3=NOC(c4c(Cl)cc(Cl)cc4Cl)C3)cs2)CC1` (stereo not drawn) [Compound 30, 1-(4-(4-(5-(2,4,6-trichlorophenyl)-4,5-dihydroisoxazol-3-yl)thiazol-2-yl)piperidin-1-yl)-2-((3-(trifluoromethyl)pyridin-2-yl)oxy)ethan-1-one], the pest or weed control at 50 ppm in the assay with Phytophthora infestans [1] and in the assay with Plasmopara viticola was 90% in each case. Further, in the assay on Phytophthora infestans [2], the inhibition of growth at 30 ppm stood at 70%.

For the compound `Cc1cccnc1OCC(=O)N1CCC(c2nc(C3=NOC(c4c(F)cccc4F)C3)cs2)CC1` (stereo not drawn) [Compound 77, 1-(4-(4-(5-(2,6-difluorophenyl)-4,5-dihydroisoxazol-3-yl)thiazol-2-yl)piperidin-1-yl)-2-((3-methylpyridin-2-yl)oxy)ethan-1-one], the pest or weed control at 50 ppm in the assay on Phytophthora infestans [1] and in the assay on Plasmopara viticola was 90% each time. Besides, the inhibition of growth at 30 ppm with Phytophthora infestans [2] amounted to 70%.

On to `O=C(COc1ncc(Cl)cc1C(F)(F)F)N1CCC(c2nc(C3=NOC(c4c(Cl)cc(Cl)cc4Cl)C3)cs2)CC1` (stereo not drawn) [Compound 34], for which the pest or weed control at 50 ppm in the assay with Phytophthora infestans [1] and in the assay on Plasmopara viticola was 90% throughout. Moreover, the inhibition of growth at 30 ppm in the assay on Phytophthora infestans [2] is 70%.

On to `CS(=O)(=O)Oc1cccc(Cl)c1C1CC(c2csc(C3CCN(C(=O)COc4ncc(C(F)(F)F)cc4Br)CC3)n2)=NO1` (stereo not drawn) [Compound 52], for which the pest or weed control at 50 ppm in the assay on Phytophthora infestans [1] and in the assay on Plasmopara viticola was 90% each time. Also, the inhibition of growth at 30 ppm with Phytophthora infestans [2] turned out to be 70%.

In the case of `Cc1cccnc1OCC(=O)N1CCC(c2nc(C3=NOC(c4c(Cl)cccc4Cl)C3)cs2)CC1` (stereo not drawn) [Compound 76, 1-(4-(4-(5-(2,6-dichlorophenyl)-4,5-dihydroisoxazol-3-yl)thiazol-2-yl)piperidin-1-yl)-2-((3-methylpyridin-2-yl)oxy)ethan-1-one], the pest or weed control at 50 ppm in the assay on Phytophthora infestans [1] and with Plasmopara viticola was 90% in each case. For the same compound, the inhibition of growth at 30 ppm in the assay with Phytophthora infestans [2] stood at 70%.

Take `O=C(COc1ncc(Br)cc1C(F)(F)F)N1CCC(c2nc(C3=NOC(c4c(F)cccc4F)C3)cs2)CC1` (stereo not drawn) [Compound 37, 2-((5-bromo-3-(trifluoromethyl)pyridin-2-yl)oxy)-1-(4-(4-(5-(2,6-difluorophenyl)-4,5-dihydroisoxazol-3-yl)thiazol-2-yl)piperidin-1-yl)ethan-1-one]: the pest or weed control at 50 ppm in the assay on Phytophthora infestans [1] and in the assay on Plasmopara viticola was 90% each time. The inhibition of growth at 30 ppm with Phytophthora infestans [2] came out at 70%.
